These results are taken from US9910031B2, “Compositions and methods for modulating c-Rel-dependent cytokine production” (Synta Pharmaceuticals Corporation, priority 2003, dated 2018).

The subject of assay [1] is p52. In words: Immunoblot of nuclear p52 in THP1 cells. The format is cell-based, human. The conditions noted are these: THP1, IFNg+LPS, 100 nM, 6 h. The procedure:
Rel B and p52 are two members of Rel family, which are preferentially complexed with each other. Like p50 and p65, p52 is found in virtually all cell types, whereas c-Rel and Rel B have only been detected in lymphoid tissues. To determine the effect of Compound 2 on p52 and Rel-B nuclear translocation, THP1 cells were stimulated with IFNg+LPS in either the presence or absence of 100 nM Compound 2, and the distribution of p52 and Rel-B was determined by immunoblotting of nuclear at 6 h post-treatment.
(§1) THP-1 cells were suspended in 20 volumes of buffer A containing 10 mM KCl, 10 mM HEPES (pH 7.9), 1 mM MgCl2, 1 mM dithiothreitol (DTT), 0.1% Nonidet p40 (NP-40), and 0.5 mM phenylmethylsulfonyl fluoride (PMSF) and homogenized and centrifuged at 10,000 rpm at 4 C for 5 min. Nuclear pellets were then suspended in buffer C containing 400 mM NaCl, 20 mM HEPES 9 pH 7.9), 15 mM MgCl2, 0.2 mM EDTA, 1 mM DTT, 25% glycerol, 1 mM PMSF, and 10 ug of leupeptin, 20 ug of pepstatin, and 10 ug/ml antipain, incubated for 30 min at 4 C, and centrifuged at 14,000 rpm for 20 min. The supernatants were dialyzed against buffer D containing 100 mM NaCl, 20 mM HEPES (pH 7.9), 20% glycerol, 1 mM PMSF, and 1 mM DTT.
The 10% SDS Polyacrylamide gels (Invitrogen) were transferred to Pure Nitrocellulose membrane (BioRed, Hercules, Calif.). […]
In general terms: Immunoblotting shows a protein as a band on a membrane.

Assay [2] deals with IL-12 p40. Put plainly: IL-12 p40 production in human monocyte-derived dendritic cells. The format is cell-based. The settings on record: up to 10 μM. The procedure:
(§2) Although c-Rel has a role in the expression of both p35 and p40 in monocytes and macrophages as well as p35 in dendritic cells (DCs), p40 expression in dendritic cells is c-Rel-independent (Grumont et al. J. Exp. Med. 2001; 194:1021-1031). If Compound 2 is acting through c-Rel, this drug should inhibit both p40 and p70 production by PBMCs. However, Compound 2 should inhibit the production of p70 (through inhibition of p35) in DCs, but should not inhibit p40 in DCs. This was tested by generating monocyte-derived dendritic cells according to the following method. Human PBMC at 1×10^7 cells/ml were suspended in serum-free DMEM and incubated for 2 hrs at 37° C. under 5% CO2. The non-adherent cells then were removed by washing with PBS. The adherent cells were cultured in RPMI-1640 medium containing rhIL-4 (100 U/ml) and rhGM-CSF (1000 U/ml) for 6-7 days. The half volume fresh media and full-volume fresh cytokines were added every other day. The cells were then primed with IFN-γ (100 U/ml) and followed by 0.01% SAC or 1 μg/ml LPS, in the presence of different concentrations of Compound 2 or other compounds. The test compounds were prepared in DMSO and the final DMSO concentration was adjusted to 0.25% in all cultures, including the compound-free control. Cell-free supernatants were taken 18 h later for the measurement of cytokines.

For assay [3], the system named is p50. In words: Western blot of nuclear p50 in THP-1 cells. The format is cell-based, human.
Source text: In order to understand this changes, the subcellular localization of NF-κB proteins was investigated using western blot analysis.
Of the transcription factors that have been analyzed, two factors, ICSBP and c-Rel, seem to be affected by Compound 1/Compound 2 treatment. ICSBP binds indirectly to the Ets-2 site. The primary NFκB trans-activator for IL-12 is the c-Rel/p50 heterodimer. Other dimers (p65/p50 and p50/p50) either lack activity or have inhibitory functions. Thus, c-Rel plays a role in IL-12 transcription as a result of both activation through NFκB and its interaction with ICSBP. […] The membranes were blocked with 5% milk in TBST buffer and then incubated with anti-c-Rel, anti-p65, anti-p50, anti-ICSBP or anti-PU-1 antibody (all the antibodies were purchased from Santa Cruz) at a dilution of 1:500 for 1 h at room temperature or overnight at 4° C. The membranes were washed and incubated with Horseradish Peroxidase-conjugated anti-rabbit IgG or anti-mouse IgG (Amersham, England) at a dilution of 1:2000 at room temperature for 1 h.
Compound 2 impairs nuclear translocation of c-Rel and p50. We examined the nuclear translocation kinetics of NF-kB family members in LPS stimulated cells treated with Compound 2. THP1 cells were stimulated with LPS in either the presence or absence of 100 nM Compound 2, and the distribution of the NF-κB Rel family members are determined by immunoblotting nuclear (n.p.) extracts collected at 5 min, 15 min, 30 min, 1 h, 3 h and 6 h post-treatment. In response to LPS stimulation, p50 translocated into the nucleus as early as 5 minutes post-stimulation and accumulates as time goes on (FIG. 7, immunoblots and FIG. 8 densitometry). […] The experiment examining p65 nuclear translocation is shown in FIG. 9 (immunoblots) and FIG. 10 (densitometry). In LPS stimulated cells, p65 translocated into the nucleus as early as 5 minutes post-stimulation and accumulated to maximum levels at 15-30 minutes post-stimulation. Treatment of LPS-stimulated cells with Compound 2 had no effect on the kinetics of p65 nuclear entry.
as §1, with “DTT. […]” for “DTT.”

Assay [4] concerns IL-12 p70. In words: IL-12 p70 production in human monocyte-derived dendritic cells. The format is cell-based. The conditions noted are these: IFN-γ primed then SAC or LPS. As to the method: as §2

Turning to `Cc1cccc(C=NNc2cc(N3CCOCC3)nc(OCCc3ccccn3)n2)c1` [Compound 2, N-(3-methyl-benzylidene)-N′-[6-morpholin-4-yl-2-(2-pyridin-2-yl-ethoxy)-pyrimidin-4-yl]-hydrazine], in assay [1], the “nuclear p52 (FIG. 11)” value is listed as “No significant difference”. In assay [2], the “p40 production in human DCs” value is reported as “no inhibition”. In assay [3] (500 nM, 3 hr, relative to untreated cells), the “amount of p50 protein in nuclear” value is given as “decreased”. For the same compound, in assay [3] (THP1, IFN-γ plus LPS or IFN-γ plus SAC), the “nuclear p50 levels (FIG. 4)” value is “decreased slightly”. Also, the “kinetics of p50 nuclear entry” value in assay [3] (THP1, LPS, 100 nM, 5 minutes to 1 hr post-stimulation) is “no effect”. In addition, the “nuclear p50 protein levels” value in assay [3] (THP1, LPS, 100 nM, 3 hours) was “small decrease”. The “p70 production in human DCs” value in assay [4] is “inhibit”.
